Data reported in patent publication US20080260637A1, “Methods of Detecting Prostate Cancer” (priority 2004, published 2008).

What was measured:
[1] = system: prostate cancer tumor areas; assay: SPECT imaging of excised intact prostate after intravenous Tc^99Sestamibi, compared with whole mount histopathology; format: in vivo, human; details: 25mCi i.v. 1-2 hours prior to prostate excision; ex-vivo SPECT of intact prostate; two patients shown
Procedure: Twelve prostate cancer patients were intravenously administered with 25mCi Tc^99Sestamibi 1-2 hours prior to prostate excision. Intact prostates were excised using surgical procedures (Radical Retro pubic Prostatectomy, Radical Cystectomy or Open Prostatectomy)—illustrated in FIG. 3. The intact prostate was imaged by SPECT using a standard dual head gamma camera (millennium, GE) 6° angular step and 40 sec/step. Imaging results were reviewed using both transaxial (FIGS. 4I-N and FIGS. 5C-D) and coronal views (FIGS. 4O-T and FIG. 5E). The nuclear images were processed automatically. The designated green lines seen in FIGS. 4I-M and 4O-R and 5C and 5E were produced following an automatic search for maximal intensity voxel. Contours were determined at 90% maximal intensity. Following imaging, prostate tissue was sliced transversely from bladder neck (base) to apex. Whole mount histopathology was carried out as described in Example 1.

[2] = system: mitochondria; details: energy dependent manner; cited from earlier work

SMILES: [C-]#[N+]CC(C)(C)OC.[C-]#[N+]CC(C)(C)OC.[C-]#[N+]CC(C)(C)OC.[C-]#[N+]CC(C)(C)OC.[C-]#[N+]CC(C)(C)OC.[C-]#[N+]CC(C)(C)OC.[Tc] [Tc^99Sestamibi]
- identification of tumor areas by SPECT scanning [1]: identified tumor areas as corroborated by whole mount histopathology
- fraction of agent taken up by mitochondria [2]: more than 90%
